Calls of active or inactive are those of the source.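 The calls were made as follows: active = lipid-stain IC50 at or below a set limit, with nuclear-stain toxicity IC50 at least five times higher; inactive = the rest.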
What was measured:
DAPI = assay: TAG lipid buildup inhibition with viability readout – cell-based, panel, Nile Red and DAPI fluorescence, H9c2, dose response (AID 651630); details: H9c2 cells, DAPI nuclear fluorescence (cytotoxicity counter-readout), oleic acid;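 also: cells exposed to compound overnight before fixation and staining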
TAG = assay: as above; details: H9c2 cells, Nile Red TAG fluorescence, oleic acid

SMILES | IC50 cytotoxicity (DAPI nuclear signal decrease) (DAPI; mean of runs) | IC50 cytotoxicity (DAPI nuclear signal decrease) (DAPI; run 1) | IC50 cytotoxicity (DAPI nuclear signal decrease) (DAPI; run 2) | IC50 (TAG; mean of runs) | IC50 (TAG; run 1) | IC50 (TAG; run 2)
CCOc1ccc(C(=O)NC(=S)Nc2cccc(S(=O)(=O)NC3=NCCC3)c2)cc1 | > 25 µM (inactive) | > 25 µM | > 25 µM | > 25 µM (inactive) | > 25 µM | > 25 µM
COc1ccc(NC(=O)C2(C)Cc3c(-c4cccc(NC(C)=O)c4)ccnc3O2)cn1 (stereo not given) | > 25 µM (inactive) | > 25 µM | > 25 µM | > 25 µM (inactive) | > 25 µM | > 25 µM
Cc1cc(N/N=C/c2cccc(Cl)c2)nc(-n2nc(C)cc2C)n1 | > 25 µM (inactive) | > 25 µM | > 25 µM | > 25 µM (inactive) | > 25 µM | > 25 µM
Cc1ccc(N2C(=O)C3CC(c4ccccc4)=C4C5C=CC(C6C(=O)N(c7ccc(C)cc7C)C(=O)C56)C4C3C2=O)c(C)c1 (stereo not given) | > 25 µM (inactive) | > 25 µM | > 25 µM | – | 22.3 µM | > 25 µM
CCN1CCN(Cc2ccc(NC(=O)c3cc(NC(=O)c4cncc(-c5cccs5)c4)cc(OC)c3)cc2C(F)(F)F)CC1 | > 25 µM (inactive) | > 25 µM | > 25 µM | 10.5 µM | 12.4 µM | 8.55 µM
C=CCC[C@H](Cc1ccc(F)cc1)C(=O)OC[C@H](C)NC(=O)[C@@H](CC=C)CC(=O)N[C@H](CO)Cc1ccccc1 | > 25 µM (inactive) | > 25 µM | > 25 µM | 15.4 µM (inactive) | 11.9 µM | 18.9 µM
Cc1ccc(CN(C)C(=O)CN2C(=O)NC3(CCCc4ccccc43)C2=O)c(C)c1 (stereo not given) | > 25 µM (inactive) | > 25 µM | > 25 µM | – | 21.7 µM | > 25 µM
Cc1occc1C(=O)NC(C)CCc1ccccc1 (stereo not given) | > 25 µM (inactive) | > 25 µM | > 25 µM | > 25 µM (inactive) | > 25 µM | > 25 µM
CC(C)C(C)(C#N)NC(=O)CSc1nc2scc(-c3ccco3)c2c(=O)n1-c1ccccc1 (stereo not given) | > 25 µM (inactive) | > 25 µM | > 25 µM | 10.5 µM | 11.4 µM | 9.69 µM
CCN(C[C@H]1N[C@@](CC)(C(=O)OC)[C@H]2C(=O)N(Cc3ccccc3)C(=O)[C@@H]12)S(=O)(=O)c1ccc(C(C)(C)C)cc1 | > 25 µM (inactive) | > 25 µM | > 25 µM | 10 µM | 10.5 µM | 9.54 µM
CN(C)CCCn1c(SCC(=O)Nc2nc(-c3cccc(Br)c3)cs2)nc2ccccc2c1=O | > 25 µM (inactive) | > 25 µM | > 25 µM | 9.78 µM | 10.1 µM | 9.46 µM
CN=C1c2cc3cc(OC)ccc3n2CCN1Cc1ccccc1 | > 25 µM (inactive) | > 25 µM | > 25 µM | 10.6 µM | 9.62 µM | 11.7 µM
Cc1cccc(NC(=O)C(C)Sc2nc3ccccc3c(=O)n2CCCN2CCOCC2)c1 (stereo not given) | > 25 µM (inactive) | > 25 µM | > 25 µM | 20.5 µM (inactive) | 20.6 µM | 20.5 µM
COc1ccc(-c2cc3nc(-c4ccccc4)cc(N4CCN(C(=O)c5ccccc5)CC4)n3n2)cc1 | > 25 µM (inactive) | > 25 µM | > 25 µM | > 25 µM (inactive) | > 25 µM | > 25 µM
CCOC(=O)CSc1cccc2cccnc12 | > 25 µM (inactive) | > 25 µM | > 25 µM | > 25 µM (inactive) | > 25 µM | > 25 µM
COc1ccc(NC(=O)C2(C)Cc3c(-c4cccc(C(N)=O)c4)ccnc3O2)cc1 (stereo not given) | > 25 µM (inactive) | > 25 µM | > 25 µM | – | > 25 µM | 12.1 µM
C=CCn1c(SCc2c(C)noc2C)nc2sc3c(c2c1=O)CCC(C)C3 (stereo not given) | > 25 µM (inactive) | > 25 µM | > 25 µM | > 25 µM (inactive) | > 25 µM | > 25 µM

SMILES | IC50 cytotoxicity (DAPI nuclear signal decrease) (DAPI; mean of runs) | IC50 cytotoxicity (DAPI nuclear signal decrease) (DAPI; run 1) | IC50 cytotoxicity (DAPI nuclear signal decrease) (DAPI; run 2) | IC50 (TAG; mean of runs) | IC50 (TAG; run 1) | IC50 (TAG; run 2)
COc1ccc(NC(=O)c2nc(C)c(C3(C)CC(c4ccccc4)=NO3)s2)cc1 (stereo not given) | > 25 µM (inactive) | > 25 µM | > 25 µM | 7.56 µM | 4.88 µM | 10.2 µM
COC(=O)[C@@]1(Cc2ccc(OC)cc2)[C@@H]2C(=CC(=O)[C@H]2CC(=O)C(=O)N2CCCC2)CN1C(=O)c1ccccc1 | – | 21 µM | > 25 µM | > 25 µM (inactive) | > 25 µM | > 25 µM
Cc1cccc(Nc2nc(NCc3ccco3)nc(N3CCOCC3)n2)c1 | > 25 µM (inactive) | > 25 µM | > 25 µM | > 25 µM (inactive) | > 25 µM | > 25 µM
COc1cc(-c2cc(NC=O)c3ncc(-c4cccc(C(=O)N(C)C)c4)n3c2)cc(OC)c1OC | > 25 µM (inactive) | > 25 µM | > 25 µM | 8.89 µM | 5.06 µM | 12.7 µM
CCN1C(=O)[C@H]2[C@@H](c3ccc(-c4ccccc4)c(OC)c3)N[C@@](CC(C)C)(C(=O)OC)[C@H]2C1=O | > 25 µM (inactive) | > 25 µM | > 25 µM | 10.3 µM | 12.4 µM | 8.14 µM
C[C@@H]1CN([C@@H](C)CO)C(=O)c2cccc(NC(=O)Nc3ccc(F)cc3)c2O[C@@H]1CN(C)Cc1ccc(Oc2ccccc2)cc1 | – | > 25 µM | > 25 µM | 1.42 µM | 1.71 µM | 1.14 µM
CCN1CCN(Cc2ccc(NC(=O)c3cc(NC(=O)C(=O)c4c[nH]c5ccccc45)cc(OC)c3)cc2C(F)(F)F)CC1 | 23.4 µM (inactive) | 23.4 µM | 23.4 µM | 5.76 µM | 5.58 µM | 5.93 µM
Cc1ccc2oc(NC3=NC4(CCCC4)C4=C(CCCC4=O)N3)nc2c1 | > 25 µM (inactive) | > 25 µM | > 25 µM | 7.66 µM | 8.73 µM | 6.6 µM
CC(C)C[C@H]1CNC(=S)N1CC1CCCN1C[C@H](CC(C)C)N1C[C@H](CC(C)C)N(CCc2ccccc2)C1=S (stereo not given in full) | > 25 µM (inactive) | > 25 µM | > 25 µM | 14.4 µM | 15.3 µM | 13.4 µM
CCCCNC(=O)C(=O)Nc1ccc2c(c1)N(S(=O)(=O)c1cccs1)CCC2 | > 25 µM (inactive) | > 25 µM | > 25 µM | – | > 25 µM | 9.53 µM
CC(C)(C)OC(=O)[C@H](Cc1ccccc1)NC(=O)c1ncn2c1c(=O)[nH]c1ccc(Br)cc12 | > 25 µM (inactive) | > 25 µM | > 25 µM | 11.8 µM | 12 µM | 11.6 µM
CCOc1ccccc1-c1nc(-c2ccc(NC(=O)Cc3ccccc3OC)cc2)no1 | > 25 µM (inactive) | > 25 µM | > 25 µM | > 25 µM (inactive) | > 25 µM | > 25 µM
CC(C)C[C@H](CO)N(Cc1ccccc1)S(=O)(=O)N(Cc1ccccc1)[C@@H](CO)CC(C)C | > 25 µM (inactive) | > 25 µM | > 25 µM | – | 9.64 µM | > 25 µM
Cc1ccc(/C=N/NC(=O)c2cc(-c3cccnc3)nc3ccccc23)cc1 | > 25 µM (inactive) | > 25 µM | > 25 µM | > 25 µM (inactive) | > 25 µM | > 25 µM
O=C(N/N=C/c1ccc(Cl)cc1)c1sccc1OCc1ccc(F)cc1 | > 25 µM (inactive) | > 25 µM | > 25 µM | > 25 µM (inactive) | > 25 µM | > 25 µM
c1ccc(-c2csc(NNC3=NCCCCC3)n2)cc1 | – | > 25 µM | > 25 µM | 3.65 µM | 3.15 µM | 4.14 µM
